This note sets out measurements from PubChem BioAssay (NCI).

Where “and” joins values, the source holds several entries; their conditions need not be identical. Equal values may be shown once.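 Cells were grown in 96-well plates and exposed to each compound for 48 hours at five concentrations; endpoints were interpolated linearly between bracketing concentrations, or set to the highest concentration if not reached. GI50: concentration for 50% inhibition of growth. At the TGI there is no net growth.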

What all share (assay): NCI-60 cell line screen, 48 h
For assay [1], the system named is UACC-62 melanoma.
For assay [2], the system named is M14 melanoma.
Assay [3] has as its system MOLT-4 leukemia.
The subject of assay [4] is NCI-H23 lung.
Assay [5] has as its system UACC-257 melanoma.
Assay [6] has as its system SK-OV-3 ovarian.
For assay [7], the system named is IGROV1 ovarian.
The test system of assay [8] is A498 renal.
The test system of assay [9] is 786-0 renal.
The test system of assay [10] is A549 NSCLC.

Regarding `Cc1ccc(Nc2ccnc(Nc3cccc(C(N)=O)c3)n2)cc1O`, the GI50 in [1] was 7.08 µM; in [2] it was 5.87 µM; in assay [3], 10.5 µM; in [4], 9.44 µM; in [5], 15.5 µM; in assay [6] it was 1.96 µM. Further, the GI50 in assay [7] is 5.37 µM; in assay [8], 7.31 µM; in assay [9], 8.09 µM; in assay [10], 8.44 µM. For the same compound, the TGI was greater than 25 µM in [1]; greater than 25 µM in assay [2]; greater than 25 µM in assay [3]; greater than 25 µM in assay [4]; greater than 25 µM in [5]; 12.1 µM in assay [6]. Besides, the TGI in assay [7] is 15.1 µM; in assay [8], greater than 25 µM; in assay [9], greater than 25 µM; in assay [10] it was greater than 25 µM.
Take `CCNC1=CC(=O)c2ncccc2C1=O`: the GI50 was 1.06 µM in assay [1]; 1.11 µM in [2]; 2.94 µM in assay [3]; 0.504 µM in assay [4]; 1.42 µM in [5]; 6.92 µM in assay [6]. The GI50 in assay [7] is 7.91 µM; in assay [8], 1.24 µM; in assay [9] it was 9.09 µM; in [10], 1.2 µM. Further, the TGI in [1] worked out at 2.3 µM; in assay [2] it was 2.46 µM; in assay [3] it was 14.3 µM; in [4] it was 2.53 µM; in [5] it was 3 µM; in assay [6], 19.8 µM. The TGI in [7] is 24.5 µM; in assay [8], 2.87 µM; in assay [9], 23.4 µM; in assay [10], 3.38 µM.
For `Cc1[nH]nc(C(=O)N/N=C/c2cccs2)c1N=NN(C)C`, the TGI in assay [1] was 51.7 µM; in assay [2] it was greater than 100 µM; in [3], 90.7 µM; in assay [4] it was greater than 100 µM; in assay [5], 72.4 µM; in [6], 43.7 µM. In addition, the TGI in [7] turned out to be 31.1 µM; in assay [8], 91 µM; in [9], 69.6 µM; in [10] it was 52.7 µM.
For the compound `CN(C)/C(=N/C(=O)Nc1ccccc1)SCc1ccccc1`, the TGI in [1], in assay [2], in [3], in assay [4], in assay [5] and in assay [6] was greater than 100 µM throughout. Further, the TGI in assay [7], in [8], in [9] and in [10] was greater than 100 µM in each case.
In the case of `COc1ccc2c3c([nH]c2c1)[C@H]1C[C@H]2[C@H](C[C@@H](O)[C@H](OC)[C@H]2C(=O)O)CN1CC3`, the TGI in assay [1], in assay [2], in [3], in assay [4], in assay [5] and in assay [6] was greater than 100 µM each time. Further, the TGI in assay [7], in assay [8], in assay [9] and in assay [10] was greater than 100 µM throughout.
`O=C1CCCc2c(O)ccc(O)c21`: the TGI in [1], in assay [2], in assay [3], in [4], in [5] and in assay [6] was greater than 100 µM throughout. Moreover, the TGI in [7], in assay [8], in assay [9] and in assay [10] was greater than 100 µM in each case.
For the compound `CN1C=CN(Cc2ccc(-c3ccccn3)nc2)[CH-]1.CN1C=CN(Cc2ccc(-c3ccccn3)nc2)[CH-]1.[Au+3]`, the GI50 is 1.4 µM in assay [1]; 2.82 µM in assay [2]; 1.1 µM in assay [3]; 5.37 µM in assay [4]; 1.52 µM in [5]; 9.32 µM in assay [6]. The GI50 was 1.42 µM in [7], 8.53 µM in assay [8], 6.14 µM in [9] and 8.69 µM in assay [10]. In addition, the TGI was 6.67 µM in assay [1]; 20.6 µM in assay [2]; 12.4 µM in assay [3]; greater than 100 µM in assay [4]; 7.47 µM in assay [5]; greater than 56.7 µM in [6]. The TGI in assay [7] is 10.3 µM; in [8] it was greater than 68.8 µM; in assay [9], greater than 100 µM; in assay [10], greater than 100 µM.
Turning to `Cn1cc(/C=C2\C(=O)Nc3cccnc32)c2ccccc21`, the GI50 in assay [1] is 8.82 µM; in assay [2], 9.32 µM; in [3] it was 11.5 µM; in assay [4], 10.9 µM; in assay [5], 13.9 µM; in [6], 17 µM. Also, the GI50 is 6.82 µM in [7], 4.73 µM in assay [8], greater than 25 µM in assay [9] and 11.8 µM in assay [10]. Also, the TGI in assay [1], in assay [2], in assay [3], in assay [4], in assay [5] and in assay [6] was greater than 25 µM throughout. Moreover, the TGI in assay [7], in assay [8], in [9] and in [10] was greater than 25 µM in each case.
As for `O=c1c2c(=NCCCN3CCCC3)cc3c(=O)n(CCCN4CCCC4)c(=O)c4c(NCCCN5CCCC5)cc(c(O)n1CCCN1CCCC1)c2c4-3`, the GI50 in assay [1] is 2.34 µM; in assay [2], 6.86 µM; in assay [3] it was 6.63 µM; in assay [4], 5.43 µM; in assay [5], 2.98 µM; in [6], 2.4 µM. The GI50 in assay [7] was 3.51 µM; in assay [8], 2.13 µM; in assay [9], 12.9 µM; in [10], 1.45 µM. For the same compound, the TGI in [1] is 5.12 µM; in assay [2], 20.3 µM; in [3] it was greater than 100 µM; in assay [4], 24.1 µM; in [5] it was 8.77 µM; in [6] it was 6.93 µM. The TGI in assay [7] was 12 µM; in assay [8] it was 4.98 µM; in assay [9] it was greater than 100 µM; in [10], 3.84 µM.
`COc1ccccc1OCC(O)CO` (stereo unspecified): the GI50 in assay [1], in assay [2], in [3], in [4], in assay [5] and in assay [6] was greater than 100 µM throughout. For the same compound, the GI50 in assay [7], in assay [8], in assay [9] and in assay [10] was greater than 100 µM in each case. The TGI in assay [1], in [2], in [3], in [4], in [5] and in [6] was greater than 100 µM throughout. Besides, the TGI in [7], in assay [8], in assay [9] and in assay [10] was greater than 100 µM throughout.
In the case of `NC(=O)c1ccc(-c2c3ccccc3cc3c2ccc2ccccc23)cc1`, the GI50 in assay [1] is 4.32 µM; in assay [2], 2.04 µM; in assay [3], 5.5 µM; in [4] it was 10.7 µM; in assay [5], 12.1 µM; in assay [6], 4.02 µM. Moreover, the GI50 in assay [7] was 7.6 µM; in assay [8], 3.71 µM; in assay [9], 3.64 µM; in [10], 4.7 µM. The TGI in [1] was 40.2 µM; in [2] it was 20.1 µM; in [3], greater than 100 µM; in [4], 84.4 µM; in [5], greater than 100 µM; in assay [6] it was 24.2 µM. The TGI in assay [7] is greater than 100 µM; in [8], 24 µM; in [9] it was 14.8 µM; in assay [10], 24.7 µM.
With `Cc1ccc(S(=O)(=O)ON=C2CC(c3ccccc3)N(C)C(c3ccccc3)C2)cc1` (stereo unspecified), the TGI in assay [1] is 31.1 µM; in [2], 34.9 µM and 43.8 µM; in assay [3], 53.2 µM and > 100 µM; in assay [4], 62.9 µM and 47.8 µM; in assay [5] it was 52.2 µM and 58 µM; in [6], 44.9 µM and 47.7 µM. Also, the TGI is 62.1 µM and 56.7 µM in assay [7]; 70.8 µM in [8]; 44.9 µM and 58.5 µM in assay [9]; 63.1 µM and 55.1 µM in assay [10].
Take `CC(Cl)CC(=O)Nc1ccc2c(c1)oc(=O)c1cc(NC(=O)CC(C)Cl)ccc12` (stereo unspecified): the GI50 in assay [1] was 15.1 µM; in assay [2], 12.4 µM; in [3], 10.2 µM; in assay [4] it was 50 µM; in assay [5], 23.2 µM; in assay [6], 15.6 µM. Besides, the GI50 is 1.73 µM in [7], 16.1 µM in assay [8], 16.9 µM in assay [9] and 8 µM in assay [10]. The TGI in assay [1] is 49.9 µM; in assay [2] it was 37.5 µM; in assay [3] it was 34.4 µM; in assay [4], greater than 100 µM; in assay [5], 76.2 µM; in [6] it was 76.7 µM. Besides, the TGI in assay [7] was determined as 23.1 µM; in assay [8], 38 µM; in assay [9] it was 44.1 µM; in assay [10], 22.2 µM.
As to `CCCC/C(C)=N/NC(N)=S`, the TGI in assay [1], in assay [2], in assay [3], in assay [4], in assay [5] and in [6] was greater than 100 µM throughout. In addition, the TGI in assay [7], in [8], in assay [9] and in [10] was greater than 100 µM each time.
As for `CCn1cc(C2NC(=O)c3cc(F)ccc3N2)c2cccc(Cl)c21` (stereo unspecified), the GI50 in assay [1] was 0.0843 µM; in [2], 0.138 µM; in [3], 0.293 µM; in [4] it was 0.508 µM; in assay [5], greater than 100 µM; in assay [6] it was 0.706 µM. Further, the GI50 in [7] was 0.388 µM; in [8] it was 0.0879 µM; in [9], 0.618 µM; in [10], 0.364 µM. In addition, the TGI was greater than 61.9 µM in assay [1]; greater than 100 µM in assay [2]; greater than 47.8 µM in [3]; greater than 100 µM in assay [4]; greater than 100 µM in assay [5]; greater than 100 µM in assay [6]. In addition, the TGI was greater than 100 µM in assay [7], 0.402 µM in [8], greater than 50.6 µM in assay [9] and greater than 100 µM in assay [10].
For `COc1ccccc1OCC(COC(=O)Nc1ccc(C)cc1)OC(=O)Nc1ccc(C)cc1` (stereo unspecified), the TGI in assay [1] worked out at 30.6 µM; in [2], 46.2 µM; in [3] it was 48.8 µM; in assay [4], 63.7 µM; in assay [5] it was 49.7 µM; in assay [6], 47.8 µM. The TGI is 60.1 µM in assay [7], greater than 100 µM in assay [8], 44 µM in assay [9] and greater than 100 µM in assay [10].
Consider `Clc1ccc(CCN2CCOCC2)c(Cl)c1`, for which the TGI in assay [1], in [2], in assay [3], in assay [4], in assay [5] and in assay [6] was greater than 100 µM each time. The TGI in assay [7], in assay [8], in assay [9] and in assay [10] was greater than 100 µM in each case.
On to `OCC1CC2CC1C1(C2)OCCO1` (stereo unspecified), for which the TGI in [1], in [2], in assay [3], in assay [4], in [5] and in assay [6] was greater than 100 µM throughout. In addition, the TGI in [7], in [8], in assay [9] and in assay [10] was greater than 100 µM each time.
For `C[C@H]1CC(=O)[C@@]2(O)C#C/C=C\C#C[C@@H]3Nc4c(cc(O)c5c4C(=O)c4ccccc4C5=O)[C@]24O[C@]314`, the TGI in assay [1] was 0.133 µM; in [2], 0.0645 µM and 0.0371 µM; in assay [3], 0.00278 µM; in [4] it was 0.0592 µM and 0.101 µM; in assay [5], 0.204 µM and 0.286 µM; in [6], 0.0954 µM. Moreover, the TGI was 0.452 µM and 0.7 µM in [7]; 0.217 µM in assay [8]; 0.106 µM and 0.262 µM in [9]; 0.82 µM in assay [10]. In addition, the GI50 is 0.0025 µM in assay [2]; 0.0025 µM in [3]; 0.00359 µM in assay [4]; 0.00794 µM in [5]; 0.0025 µM in assay [7]; 0.00435 µM in [9].
